Test results published in ChEMBL document CHEMBL3137667, “[Drug-induced liver injury; fourteenth updated edition of the bibliographic database of liver injuries and related drugs]” (Gastroenterol Clin Biol, 2004).

Tests used:
[1] = human
[2] = human; remark: listed apart in the source
[3] = human; remark: listed apart in the source
[4] = human; remark: listed apart in the source
[5] = Highest frequency of moderate liver toxicity observed during clinical trials, expressed as a percentage. [column '% BIOL' in source]; details: human
[6] = human; remark: listed apart in the source
[7] = human, serum, 4383 h
[8] = human, serum
[9] = human, serum; remark: listed apart in the source
[10] = human; remark: listed apart in the source
[11] = human; remark: listed apart in the source
[12] = human; remark: listed apart in the source
[13] = Highest frequency of acute liver toxicity observed during clinical trials, expressed as a percentage. [column '% AIGUE' in source]; details: human
[14] = human; remark: listed apart in the source
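For Hepatotoxicity (association with vascular disease) in this document: count of indexed literature references reporting vascular liver injury in humans, e.g. peliosis hepatitis, hepatic veno-occlusive disease or Budd-Chiari syndrome.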
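For Hepatotoxicity (benign tumour) in this document: value is a count of indexed literature references citing a benign tumour confirmed by histopathology.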
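For Hepatotoxicity (choleostasis) in this document: human cholestatic liver injury, shown by histopathology or by peak ALT or AST elevation over alkaline phosphatase ratio below 2, value counts indexed literature reports.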
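For Hepatotoxicity (chronic liver disease) in this document: chronic liver injury confirmed by histopathology or persistently raised serum aminotransferase activity beyond 6 months, value given as the count of indexed literature references.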
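For Hepatotoxicity (cirrhosis) in this document: value is a count of indexed literature references reporting cirrhosis confirmed by histopathology.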
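For Hepatotoxicity (cytolytic) in this document: human cytolytic liver injury, shown by histopathology or by a ratio above 5 of peak ALT or AST elevation to alkaline phosphatase elevation, value counts indexed references.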
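For Hepatotoxicity (granulomatous hepatitis) in this document: value is a count of indexed literature references reporting granulomatous liver disease confirmed by histopathology.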
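For Hepatotoxicity (malignant tumour) in this document: malignant tumour confirmed by histopathology, value gives the count of indexed literature references reporting it.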
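For Hepatotoxicity (severe hepatitis) in this document: human clinical data: severe hepatitis, meaning potentially life-threatening liver failure or clinically observed cases, the value counts how many indexed literature references report it.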
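For Hepatotoxicity (steatosis) in this document: steatosis confirmed by histopathology, value is the count of indexed references.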

| SMILES | Hepatotoxicity (severe hepatitis) [1] | Hepatotoxicity (malignant tumour) [2] | Hepatotoxicity (cirrhosis) [3] | Hepatotoxicity (benign tumour) [4] | Hepatotoxicity (moderate) [5] [%] | Hepatotoxicity (association with vascular disease) [6] | Hepatotoxicity (chronic liver disease) [7] | Hepatotoxicity (acute) [8] | Hepatotoxicity (moderate) [9] | Hepatotoxicity (cytolytic) [10] | Hepatotoxicity (steatosis) [11] | Hepatotoxicity (granulomatous hepatitis) [12] | Hepatotoxicity (acute) [13] [%] | Hepatotoxicity (choleostasis) [14] |
| --- | --- | --- | --- | --- | --- | --- | --- | --- | --- | --- | --- | --- | --- | --- |
| CCN1C(=O)NC(c2ccccc2)C1=O (centres undefined) [ETHOTOIN] | 0 | 0 | 0 | 0 | 2 | 0 | 0 | 0 | 1 | 0 | 0 | 0 | 0 | 0 |
| CC(=O)NCCOC(=O)C(Oc1cccc(C(F)(F)F)c1)c1ccc(Cl)cc1 (centres undefined) [HALOFENATE] | 0 | 0 | 0 | 0 | 0 | 0 | 0 | 0 | 1 | 0 | 0 | 0 | 0 | 0 |
| C[C@H]1C[C@H]2[C@@H]3CCC4=CC(=O)C=C[C@]4(C)[C@@]3(Cl)[C@@H](O)C[C@]2(C)[C@@]1(O)C(=O)CO [BECLOMETHASONE] | 0 | 0 | 0 | 0 | 11.6 | 0 | 0 | 0 | 1 | 0 | 0 | 0 | 0 | 0 |
| N[C@H](Cc1cc(I)c(Oc2cc(I)c(O)c(I)c2)c(I)c1)C(=O)O [DEXTROTHYROXINE] | 0 | 0 | 0 | 0 | 40.2 | 0 | 0 | 0 | 1 | 0 | 0 | 0 | 0 | 0 |
| CCOC(OCC)C(=O)OCC(=O)[C@]1(O)Cc2c(O)c3c(c(O)c2[C@@H](O[C@H]2C[C@H](N)[C@H](O)[C@H](C)O2)C1)C(=O)c1c(OC)cccc1C3=O [DETORUBICIN] | 0 | 0 | 0 | 0 | 9.4 | 0 | 0 | 0 | 2 | 0 | 0 | 0 | 0 | 0 |
| COC(=O)C1=C(C)NC(C)=C(C(=O)OC(C)C)C1c1cccc2nonc12 (centres undefined) [ISRADIPINE] | 0 | 0 | 0 | 0 | 8.3 | 0 | 0 | 0 | 6 | 0 | 0 | 0 | 0 | 0 |
| CCC(C)C(C)(COC(N)=O)COC(N)=O (centres undefined) [MEBUTAMATE] | 0 | 0 | 0 | 0 | 0 | 0 | 0 | 1 | 0 | 0 | 0 | 0 | 0 | 1 |
| COc1ccc([C@@H]2Sc3cc(Cl)ccc3N(CCN(C)C)C(=O)[C@@H]2OC(C)=O)cc1 [CLENTIAZEM] | 0 | 0 | 0 | 0 | 3.7 | 0 | 0 | 0 | 1 | 0 | 0 | 0 | 0 | 0 |
| CCCCC(C)(C)[C@H](O)/C=C/[C@H]1[C@H](C)CC(=O)[C@@H]1C/C=C\CCCC(=O)O [TRIMOPROSTIL] | 0 | 0 | 0 | 0 | 0 | 0 | 0 | 0 | 1 | 0 | 0 | 0 | 0 | 0 |
| Cc1c(N)nc([C@@H](CC(N)=O)NC[C@@H](N)C(N)=O)nc1C(=O)N[C@@H](C(=O)N[C@@H](C)[C@H](O)[C@@H](C)C(=O)N[C@H](C(=O)NCCc1nc(-c2nc(C(=O)NCCCN(C)CCCN(Cc3ccc(OCc4ccccc4)c(OCc4ccccc4)c3)Cc3ccc(OCc4ccccc4)c(OCc4ccccc4)c3)cs2)cs1)[C@@H](C)O)C(O[C@H]1O[C@@H](CO)[C@H](O)[C@@H](O)[C@H]1O[C@H]1O[C@@H](CO)[C@@H](O)[C@H](OC(N)=O)[C@@H]1O)c1c[nH]cn1 (some centres undefined) | 0 | 0 | 0 | 0 | 23.5 | 0 | 0 | 0 | 1 | 0 | 0 | 0 | 0 | 0 |
| O=[N+]([O-])c1ccc(O)c([N+](=O)[O-])c1 [2,4-DINITROPHENOL] | 2 | 0 | 0 | 0 | 0 | 0 | 0 | 3 | 0 | 0 | 0 | 0 | 0 | 0 |
